Experiments:
[1] = tested on: pig-baboon chimeric uricase (amino acids 1-225 of SEQ ID NO:10 and amino acids 226-304 of SEQ ID NO:11); assay: Uricolytic activity, A293 decrease, steady-state kinetics; assay type: biochemical; conditions: 0.1M Na2HPO4/Na2H2PO4, pH 7.4; 24° C.
[2] = tested on: ancestral mammalian uricase Node 19 (four identical subunits), SEQ ID NO:2; assay: as above; assay type: biochemical; conditions: 0.1M Na2HPO4/Na2H2PO4, pH 7.4; 24° C.
Source text: (§1) Uricases were designed using Ancestral Sequence Reconstruction (ASR) to reconstruct and resurrect ancestral forms of human uricase based upon an analysis of modern mammalian uricases. See generally Gaucher, “Ancestral sequence reconstruction as a tool to understand natural history and guide synthetic biology: Realizing (and extending) the vision of Zukerkandl and Pauling” in ANCESTRAL SEQUENCE RECONSTRUCTION, ed. David A. Liberles, pp. 20-33 (Oxford University Press, 2007). Ancestral uricase sequences corresponding to various nodes of the phylogenetic tree were inferred by analyzing modern mammalian uricase sequences (FIG. 1), and uricases were designed based upon those inferred sequences. Uricase subunits of the present invention may therefore comprise an amino acid sequence corresponding to the inferred amino acid sequence at one of the nodes highlighted in FIG. 1 (e.g., Node 18, Node 19, Node 26, Node 27, Node 30, Node 31 or Node 32) or to a variant of the inferred amino acid sequence at one of the nodes highlighted in FIG. 1.

[3] = tested on: ancestral mammalian uricase Node 26 (four identical subunits), SEQ ID NO:3; assay: as above; assay type: biochemical; conditions: phosphate buffered saline, pH 7.4
Source text: as §1

[4] = tested on: ancestral mammalian uricase Node 27 (four identical subunits), SEQ ID NO:4; assay: as above; assay type: biochemical; conditions: phosphate buffered saline, pH 7.4; 24° C.
Source text: as §1

[5] = molecular target: T1, pig uricase, SEQ ID NO:10 (Sus scrofa, UniProt P16164); conditions: 0.1M Na2HPO4/Na2H2PO4, pH 7.4; 24° C.
T1 sequence (P16164 1-304): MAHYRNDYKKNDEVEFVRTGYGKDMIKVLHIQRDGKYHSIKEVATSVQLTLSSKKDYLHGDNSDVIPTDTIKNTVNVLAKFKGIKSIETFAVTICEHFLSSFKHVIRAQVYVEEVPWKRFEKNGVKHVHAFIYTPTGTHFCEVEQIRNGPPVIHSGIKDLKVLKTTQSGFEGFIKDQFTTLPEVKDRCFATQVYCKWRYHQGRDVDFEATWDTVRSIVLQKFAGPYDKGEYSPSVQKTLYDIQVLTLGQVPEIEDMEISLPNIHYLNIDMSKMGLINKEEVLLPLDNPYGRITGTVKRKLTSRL

## O=c1[nH]c(=O)c2[nH]c(=O)[nH]c2[nH]1 [uric acid]
[1]
  Km: 2.2 µM
  Vmax: 2.8 × 10^−3 μmol uric acid/min
  kcat: 4.78 s⁻¹
[2]
  Km: 4 µM
  Vmax: 4.3 × 10^−3 μmol uric acid/min
  kcat: 5.42 s⁻¹
[3]; 24° C.
  Km: 4.9 µM
  Vmax: 1.4 × 10^−3 μmol uric acid/min
  kcat: 1.25 s⁻¹
[3]; 37° C.
  Km: 4.9 µM
  Vmax: 4.3 × 10^−3 μmol uric acid/min
  kcat: 3.75 s⁻¹
[4]
  Km: 5.3 µM
  Vmax: 8.1 × 10^−4 μmol uric acid/min
  kcat: 0.417 s⁻¹
[5]
  Vmax: 2.4 × 10^−3 μmol uric acid/min

— patent US8940861B2, “Variants of ancestral uricases and uses thereof” (Georgia Tech Research Corporation, priority 2010, dated 2015)
